Assay results taken from publication PMC6691788, “Design and synthesis of phthalazine-based compounds as potent anticancer agents with potential antiangiogenic activity via VEGFR-2 inhibition” (Journal of Enzyme Inhibition and Medicinal Chemistry, 2019).

Columns and labels:
Experiment in all cases: NCI 60 cell panel SRB screen
Type in all cases: cell-based
SF-268 = settings: Homo sapiens; for GI50 / IC (TGI) / CC50: SF-268, 5 log dose; for CC50: 48 h, read-out: LC50 (the source's name); for activity at 10 µM: SF-268, single dose 10 μM, read-out: percent cell growth promotion
HS 578T = settings: Homo sapiens; for GI50 / IC (TGI) / activity at 10 µM: Hs-578T; for IC (TGI): read-out: TGI; for activity at 10 µM: read-out: percent cell growth promotion; for CC50: HS 578T, 5 log dose, 48 h, read-out: LC50 (the source's name)
LOX IMVI = settings: Homo sapiens; for CC50: 5 log dose, 48 h, read-out: LC50 (the source's name); for IC (TGI): read-out: TGI; for activity at 10 µM: read-out: percent cell growth promotion
MDA-MB-468 = settings: Homo sapiens; for activity at 10 µM: MDA-MB-468, MDA-MBA-468, single dose 10 μM, read-out: percent cell growth promotion; for GI50 / IC (TGI) / CC50: MDA-MB-468, 5 log dose; for CC50: 48 h, read-out: LC50 (the source's name)
Procedure: The human tumor cell lines of the cancer-screening panel were grown in RPMI 1640 medium containing 5% fetal bovine serum and […] L-glutamine. For a typical screening experiment, cells are inoculated into 96 well microtiter plates in 100 ml at plating densities ranging from 5000 to 40,000 cells/well depending on the doubling time of individual cell lines. After cell inoculation, the microtiter plates are incubated at 37 °C, 5% CO2, 95% air and 100%
relative humidity for 24 h prior to addition of experimental drugs. After 24 h, two plates of each cell line are fixed in situ with TCA, to represent a measurement of the cell population for each cell line at the time of drug addition (Tz). Experimental drugs are dissolved in dimethyl sulfoxide at 400-fold the desired final maximum test concentration and stored frozen prior to use. At the time of drug addition, an aliquot of frozen concentrate is thawed and diluted to twice the desired final maximum test concentration with complete medium containing […] Gentamicin. Additional four, 10-fold or ½log serial dilutions are made to provide a total of five drug concentrations plus control. Aliquots of […] of these different drug dilutions are added to the appropriate microtiter wells already containing 100 ml of medium, resulting in the required final drug concentrations. Following drug addition, the plates are incubated for an additional 48 h at 37 °C, 5% CO2, 95% air, and 100% relative humidity. For adherent cells, the assay is terminated by the addition of cold TCA. Cells are fixed in situ by the gentle addition of […] of cold 50% (w/v) TCA (final concentration,10% TCA) and incubated for 60 min at 4 °C. The supernatant is discarded, and the plates are washed five times with tap water and air dried. Sulforhodamine B (SRB) solution (100 ml) at 0.4% (w/v) in 1% acetic acid is added to each well, and plates are incubated for 10 min at room temperature. After staining, unbound dye is removed by washing five times with 1% acetic acid and the plates are air dried. Bound stain is subsequently dissolved with 10 μM trizma base, and the absorbance is read on an automated plate reader at a wavelength of 515 nm. For suspension cells, the methodology is the same except that the assay is terminated by fixing settled cells at the bottom of the wells by gently adding […] of 80% TCA (final concentration, 16% TCA).
Using the seven absorbance measurements [time zero, (Tz), control growth, (C), and test growth in the presence of drug at the five concentration levels (Ti)], the percentage growth is calculated at each of the drug concentrations levels. Percentage growth inhibition is calculated as: [(Ti -Tz)/(C - Tz)] x 100 for concentrations for which Ti>/ ¼ Tz and [(Ti -Tz) / Tz] x100 for concentrations for which Ti <Tz.
Three dose response parameters are calculated for each experimental agent. Growth inhibition of 50% (GI50) is calculated from [(Ti -Tz)/(C - Tz)] x 100 =50, which is the drug concentration resulting in a 50% reduction in the net protein increase (as measured by SRB staining) in control cells during the drug incubation. The drug concentration resulting in total growth inhibition (TGI) is calculated from Ti ¼ Tz. The LC50 (concentration of drug resulting in a 50% reduction in the measured protein at the end of the drug treatment as compared to that at the beginning) indicating a net loss of cells following treatment is calculated from [(Ti - Tz) / Tz] x100 = -50. Values are calculated for each of these three parameters if the level of activity is reached; however, if the effect is not reached or is exceeded, the value for that parameter is expressed as greater or less than the maximum or minimum concentration tested.

PC-3 = settings: Homo sapiens; for GI50 / IC (TGI) / CC50: PC-3, 5 log dose; for CC50: 48 h, read-out: LC50 (the source's name); for activity at 10 µM: PC-3, single dose 10 μM, read-out: percent cell growth promotion
HOP-62 = settings: Homo sapiens; for GI50 / IC (TGI) / CC50: HOP-62, 5 log dose; for CC50: 48 h, read-out: LC50 (the source's name); for activity at 10 µM: HOP-62, single dose 10 μM, read-out: percent cell growth promotion

Row | Structure (SMILES) | GI50 (SF-268) [µM] | IC (TGI) (SF-268) [µM] | CC50 (SF-268) [µM] | activity at 10 µM (SF-268) [%] | GI50 (HS 578T) [µM] | IC (TGI) (HS 578T) [µM] | activity at 10 µM (HS 578T) [%] | CC50 (HS 578T) [µM] | GI50 (LOX IMVI) [µM] | CC50 (LOX IMVI) [µM] | IC (TGI) (LOX IMVI) [µM] | activity at 10 µM (LOX IMVI) [%] | activity at 10 µM (MDA-MB-468) [%] | GI50 (MDA-MB-468) [µM] | IC (TGI) (MDA-MB-468) [µM] | CC50 (MDA-MB-468) [µM] | GI50 (PC-3) [µM] | IC (TGI) (PC-3) [µM] | activity at 10 µM (PC-3) [%] | activity at 10 µM (HOP-62) [%] | also measured
1 | Clc1ccc(Nc2nnc(CNc3ccccc3)c3ccccc23)cc1 [Compound 16a, N-(4-Chlorophenyl)-4-((phenylamino)methyl)phthalazin-1-amine] | 3.28 | 14.5 | > 25 | 20.9 | 2.95 | 12.9 | 26.6 | > 25 | 1.57 | 11.4 | 4.97 | 12.1 | -16.4 | 1.9 | 11.5 | > 25 | 14.4 | 14.4 | 7.15 | 27.4 | CC50 (PC-3): > 25 µM; GI50 (HOP-62): 2.86 µM; IC (TGI) (HOP-62): 8.84 µM; CC50 (HOP-62): > 25 µM
2 | CCOC(=O)N1CCN(c2nncc3ccccc23)CC1 [Compound 8a, Ethyl 4-(phthalazin-1-yl)piperazine-1-carboxylate] |  |  |  | 104 |  |  | 113 |  |  |  |  | 98.7 | 97.7 |  |  |  |  |  | 92.6 | 107 | 
3 | Cc1nnc(N2CCN(c3ccccn3)CC2)c2ccccc12 [Compound 8i, 1-Methyl-4–(4-(pyridin-2-yl)piperazin-1-yl)phthalazine] |  |  |  | 106 |  |  | 109 |  |  |  |  | 102 | 87.4 |  |  |  |  |  | 100 | 99.8 | 
4 | COc1cccc(NCc2nnc(Nc3ccc(Cl)cc3)c3ccccc23)c1 [Compound 16d, N-(4-Chlorophenyl)-4-((3-methoxyphenylamino)methyl)phthalazin-1-amine] | 2.05 | 10.5 | > 25 | 2.52 | 2.9 | 11.5 | 0.54 | > 25 | 1.11 | 12.8 | 4.83 | -58.7 | -21.9 | 1.05 | 4.73 | 19.5 | 1.19 | 9.33 | -13.6 | -17.1 | CC50 (PC-3): > 25 µM; GI50 (HOP-62): 2.06 µM; IC (TGI) (HOP-62): 8.48 µM; CC50 (HOP-62): > 25 µM
5 | Cc1nnc(Nc2ccc(NC(=O)Nc3ccc(Cl)cc3)cc2)c2ccccc12 [Compound 6e, 1–(4-Chlorophenyl)-3–(4-(4-methylphthalazin-1-ylamino)phenyl)urea] | 2.57 | 7.17 | 47 | 48.7 | 2.52 | 6.4 | 3.43 | > 100 | 1.75 | 6.11 | 3.27 | -27.3 | 6.44 | 2.84 | 7.43 | 36.2 | 3.49 | 11.9 | 22.8 | 44.2 | CC50 (PC-3): 62.7 µM; GI50 (HOP-62): 1.81 µM; IC (TGI) (HOP-62): 3.7 µM; CC50 (HOP-62): 7.56 µM
6 | CCOC(=O)N1CCN(c2nnc(C)c3ccccc23)CC1 [Compound 8f, Ethyl 4–(4-methylphthalazin-1-yl)piperazine-1-carboxylate] |  |  |  | 101 |  |  | 106 |  |  |  |  | 106 | 104 |  |  |  |  |  | 101 | 100 | 
7 | O=C(Nc1ccc(Cl)cc1)Nc1ccc(Oc2nnc(Cl)c3ccccc23)cc1 [Compound 13b, 1–(4-Chlorophenyl)-3–(4-(4-chlorophthalazin-1-yloxy)phenyl)urea] |  |  |  | 85.8 |  |  | 97.9 |  |  |  |  | 86.2 | 84.9 |  |  |  |  |  | 67.8 | 93.3 | 
8 | Cc1nnc(Oc2ccc(NC(=O)Nc3ccc(Cl)cc3)cc2)c2ccccc12 [Compound 7e, 1–(4-Chlorophenyl)-3–(4-(4-methylphthalazin-1-yloxy)phenyl)urea] |  |  |  | 70.5 |  |  | 76.4 |  |  |  |  | 78.1 | 68.6 |  |  |  |  |  | 39 | 71.1 | 
9 | Cc1nnc(N2CCN(c3ccccc3)CC2)c2ccccc12 [Compound 8g, 1-Methyl-4–(4-phenylpiperazin-1-yl)phthalazine] |  |  |  | 108 |  |  | 105 |  |  |  |  | 103 | 98.8 |  |  |  |  |  | 99.4 | 97.1 | 
10 | O=C(Nc1ccccc1)Nc1ccc(Oc2nnc(Cl)c3ccccc23)cc1 [Compound 13a, 1–(4-(4-Chlorophthalazin-1-yloxy)phenyl)-3-phenylurea] | 2.89 | 7.57 | 19.8 | 25.9 | 2.12 | 10.4 | 1.19 | > 25 | 3.46 | 13.4 | 6.08 | 32.1 | 0.47 | 7.58 | 7.56 | > 25 | 3.26 | 10.6 | 25.9 | -43.4 | CC50 (PC-3): > 25 µM; GI50 (HOP-62): 2.52 µM; IC (TGI) (HOP-62): 65.4 µM; CC50 (HOP-62): 17 µM
11 | c1ccc(N2CCN(c3nncc4ccccc34)CC2)nc1 [Compound 8d, 1–(4-(Pyridin-2-yl)piperazin-1-yl)phthalazine] |  |  |  | 103 |  |  | 109 |  |  |  |  | 97.5 | 93.3 |  |  |  |  |  | 101 | 110 | 
12 | Cc1nnc(N2CCN(c3ccccc3F)CC2)c2ccccc12 [Compound 8h, 1–(4-(2-Fluorophenyl)piperazin-1-yl)-4-methylphthalazine] |  |  |  | 110 |  |  | 110 |  |  |  |  | 106 | 84.8 |  |  |  |  |  | 99 | 100 | 
13 | Cc1nnc(Nc2ccc(NC(=O)c3ccc(Cl)cc3)cc2)c2ccccc12 [Compound 5d, 4-Chloro-N-(4–(4-methylphthalazin-1-ylamino)phenyl)benzamide] |  |  |  | 90 |  |  | 89.7 |  |  |  |  | 91.9 | 104 |  |  |  |  |  | 72.6 | 88.8 | 
